Source: patent US20070203091A1, “Methods and therapeutic compositions for improving liver, blood flow and skeletal muscle functions in advanced diseases and aging” (priority 2006, published 2007)
Entries after “also recorded” stand apart in the source; their conditions may differ. Like-named read-outs stand apart in the source and are kept apart here.

Tests used:
[1] = ATP pharmacokinetics: total blood (red blood cell) ATP level, Phase I study, 8 hour intravenous infusion; type: in vivo, human
Description: The solution was administered by continuous intravenous infusions using an Ivac or similar infusion device through venous access in a peripheral vein. If venous access was a problem, either a Hickman catheter or its equivalent, or an Infusaport or its equivalent was inserted to provide vascular access.
The 50 μg/kg/min dose could be reduced to 25 μg/kg/min if adverse effects occurred. […] Succeeding infusions in that patient were at the infusion dose tolerated at the end of the previous treatment. If adverse events occurred in patients being infused at 25 μg/kg/min, the infusions were terminated and the patient received no additional infusions.

[2] = cited from earlier work
[3] = Voluntary (skeletal) muscle strength, hand grip strength, Phase I study; type: in vivo, human; details: for Skeletal Muscle Strength, Change from Baseline, Mean / Skeletal Muscle Strength, Change from Baseline, Median / Skeletal Muscle Strength, Observed Values, Mean / Skeletal Muscle Strength, Observed Values, Median: ITT
Description: Procedure for measuring voluntary (skeletal) muscle strength-hand grip strength • 1. This measurement will be performed in the standing position (without support) using the patients' dominant hand in the horizontal outstretched position of 90 degrees to the body. • 2. Measurements will be taken using a calibrated and well maintained hand-held commercially available dynamometer. • 3. All measurements that are performed during the treatment period will be taken prior to placement of intravenous cannula and prior to study treatment administration • 4. Patients will undertake the hand-grip strength maneuver after initial training—with encouragement from the observer to “do their best”. This will be performed ×3 with no more than 30 seconds between attempts. • 5. The maximal value of the three attempts will be recorded as the hand-grip strength on that day. • 6. The testing will be performed and documented by the same individual member of the research team (as often as is practically possible). • The dynamometer instrument will be to the greatest extent possible the same instrument for any one patient throughout the study and will be initially calibrated and checked for accuracy prior to the study and thereafter on a regular basis. ATP Therapeutics, Inc.

[4] = Week 1 (infusion 1), 4 hours into infusion
[5] = Week 1 (infusion 1), 8 hours (before the end)
[6] = Week 1 (infusion 1), 8.25 hours
[7] = Week 1 (infusion 1), Time 0 (pre-infusion)
[8] = Week 3 (Infusion 3), 4 hours into infusion
[9] = Week 3 (Infusion 3), 8 hours before the end
[10] = Week 3 (Infusion 3), Time 0 (pre-infusion)
[11] = Week 8 (infusion 8), 4 hours into infusion
[12] = Week 8 (infusion 8), 8 hours (before the end)
[13] = Week 8 (infusion 8), Time 0 (pre-infusion)
[14] = ATP infusion rate 500-1000 μg/kg/min
[15] = ATP infusion rate ≦100 μg/kg/min
[16] = Week <1 (Screening), baseline, N=15

Nc1ncnc2c1ncn2[C@@H]1O[C@H](COP(=O)(O)OP(=O)(O)OP(=O)(O)O)[C@@H](O)[C@H]1O [ATP, adenosine 5′-triphosphate]
total blood (red blood cell) ATP levels ([1]; ATP continuously for eight hours): increases | ATP Level Mean [1, 4]: 0.808 mM | ATP Level Median [1, 4]: 0.745 mM | ATP Level Mean [1, 5]: 0.896 mM | ATP Level Median [1, 5]: 0.770 mM | ATP Level Mean [1, 6]: 0.860 mM | ATP Level Median [1, 6]: 0.860 mM | ATP Level Mean ([1]; Week 1 (infusion 1), 9 hours): 0.912 mM | ATP Level Median ([1]; Week 1 (infusion 1), 9 hours): 0.765 mM | ATP Level Mean ([1]; Week 1 (infusion 1), 10 hours): 0.826 mM | ATP Level Median ([1]; Week 1 (infusion 1), 10 hours): 0.735 mM | ATP Level Mean ([1]; Week 1 (infusion 1), 11 hours): 0.828 mM | ATP Level Median ([1]; Week 1 (infusion 1), 11 hours): 0.680 mM | ATP Level Mean ([1]; Week 1 (infusion 1), 12 hours): 0.845 mM | ATP Level Median ([1]; Week 1 (infusion 1), 12 hours): 0.690 mM | ATP Level Mean ([1]; Week 1 (infusion 1), 14 hours): 0.857 mM | ATP Level Median ([1]; Week 1 (infusion 1), 14 hours): 0.730 mM | ATP Level Mean ([1]; Week 1 (infusion 1), 16 hours): 0.905 mM | ATP Level Median ([1]; Week 1 (infusion 1), 16 hours): 0.755 mM | ATP Level Mean ([1]; Week 1 (infusion 1), 20 hours): 0.772 mM | ATP Level Median ([1]; Week 1 (infusion 1), 20 hours): 0.670 mM | ATP Level Mean ([1]; Week 1 (infusion 1), 24 hours): 0.715 mM | ATP Level Median ([1]; Week 1 (infusion 1), 24 hours): 0.620 mM | ATP Level Mean [1, 7]: 0.615 mM | ATP Level Median [1, 7]: 0.550 mM | ATP Level Mean ([1]; Week 1 (infusion 1), […]): 0.895 mM | ATP Level Median ([1]; Week 1 (infusion 1), […]): 0.810 mM | ATP Level Mean [1, 8]: 0.843 mM | ATP Level Median [1, 8]: 0.540 mM | ATP Level Mean [1, 9]: 0.955 mM | ATP Level Median [1, 9]: 0.770 mM | ATP Level Mean ([1]; Week 3 (Infusion 3), 9 hours): 0.908 mM | ATP Level Median ([1]; Week 3 (Infusion 3), 9 hours): 0.950 mM | ATP Level Mean ([1]; Week 3 (Infusion 3), 10 hours): 0.906 mM | ATP Level Median ([1]; Week 3 (Infusion 3), 10 hours): 1.000 mM | ATP Level Mean ([1]; Week 3 (Infusion 3), 11 hours): 0.885 mM | ATP Level Median ([1]; Week 3 (Infusion 3), 11 hours): 0.670 mM | ATP Level Mean ([1]; Week 3 (Infusion 3), 12 hours): 0.903 mM | ATP Level Median ([1]; Week 3 (Infusion 3), 12 hours): 0.820 mM | ATP Level Mean ([1]; Week 3 (Infusion 3), 14 hours): 0.853 mM | ATP Level Median ([1]; Week 3 (Infusion 3), 14 hours): 0.600 mM | ATP Level Mean ([1]; Week 3 (Infusion 3), 16 hours): 0.859 mM | ATP Level Median ([1]; Week 3 (Infusion 3), 16 hours): 0.740 mM | ATP Level Mean ([1]; Week 3 (Infusion 3), 20 hours): 0.851 mM | ATP Level Median ([1]; Week 3 (Infusion 3), 20 hours): 0.610 mM | ATP Level Mean ([1]; Week 3 (Infusion 3), 24 hours): 0.687 mM | ATP Level Median ([1]; Week 3 (Infusion 3), 24 hours): 0.580 mM | ATP Level Mean [1, 10]: 0.610 mM | ATP Level Median [1, 10]: 0.560 mM | ATP Level Mean ([1]; Week 3 (Infusion 3), […]): 0.989 mM | ATP Level Median ([1]; Week 3 (Infusion 3), […]): 0.960 mM | ATP Level Mean [1, 11]: 0.702 mM | ATP Level Median [1, 11]: 0.770 mM | ATP Level Mean [1, 12]: 0.826 mM | ATP Level Median [1, 12]: 0.890 mM | ATP Level Mean ([1]; Week 8 (infusion 8), 9 hours): 1.030 mM | ATP Level Median ([1]; Week 8 (infusion 8), 9 hours): 1.155 mM | ATP Level Mean ([1]; Week 8 (infusion 8), 10 hours): 0.963 mM | ATP Level Median ([1]; Week 8 (infusion 8), 10 hours): 1.080 mM | ATP Level Mean ([1]; Week 8 (infusion 8), 11 hours): 0.973 mM | ATP Level Median ([1]; Week 8 (infusion 8), 11 hours): 1.010 mM | ATP Level Mean ([1]; Week 8 (infusion 8), 12 hours): 0.925 mM | ATP Level Median ([1]; Week 8 (infusion 8), 12 hours): 1.050 mM | ATP Level Mean ([1]; Week 8 (infusion 8), 14 hours): 0.980 mM | ATP Level Median ([1]; Week 8 (infusion 8), 14 hours): 0.950 mM | ATP Level Mean ([1]; Week 8 (infusion 8), 16 hours): 0.894 mM | ATP Level Median ([1]; Week 8 (infusion 8), 16 hours): 0.700 mM | ATP Level Mean ([1]; Week 8 (infusion 8), 20 hours): 0.960 mM | ATP Level Median ([1]; Week 8 (infusion 8), 20 hours): 0.900 mM | ATP Level Mean ([1]; Week 8 (infusion 8), 24 hours): 0.708 mM | ATP Level Median ([1]; Week 8 (infusion 8), 24 hours): 0.750 mM | ATP Level Mean [1, 13]: 0.573 mM | ATP Level Median [1, 13]: 0.560 mM | ATP Level Mean ([1]; Week 8 (infusion 8), […]): 1.000 mM | ATP Level Median ([1]; Week 8 (infusion 8), […]): 0.980 mM | Increases in total blood ATP pools ([1]; patients 502-505, weeks 1, 3 and 8, time 0 to 8 hours (end of the infusions)): 70-90% | Cardiac Output [2, 14]: Increase | Heart Rate [2, 14]: Increase | Pulmonary Arterial Pressure [2, 14]: Decrease | Pulmonary Vascular Resistance [2, 14]: Decrease | Systemic Arterial Pressure [2, 14]: Decrease | Systemic Vascular Resistance [2, 14]: Decrease | Cardiac Output [2, 15]: Small Increase | Heart Rate [2, 15]: do not affect; also recorded: No Change | Pulmonary Arterial Pressure [2, 15]: No Change | Pulmonary Vascular Resistance [2, 15]: Decrease | Systemic Arterial Pressure [2, 15]: do not affect; also recorded: No Change | Systemic Vascular Resistance [2, 15]: Small Decrease | Skeletal Muscle Strength, Change from Baseline, Mean ([3]; Week 1 (Infusion 1), N=6): -1.7 kg | Skeletal Muscle Strength, Change from Baseline, Median ([3]; Week 1 (Infusion 1), N=6): -1.5 kg | Skeletal Muscle Strength, Observed Values, Mean ([3]; Week 1 (Infusion 1), N=6): 38.5 kg | Skeletal Muscle Strength, Observed Values, Median ([3]; Week 1 (Infusion 1), N=6): 35.0 kg | Skeletal Muscle Strength, Change from Baseline, Mean ([3]; Week 2 (Infusion 2), N=14): -1.4 kg | Skeletal Muscle Strength, Change from Baseline, Median ([3]; Week 2 (Infusion 2), N=14): -2.0 kg | Skeletal Muscle Strength, Observed Values, Mean ([3]; Week 2 (Infusion 2), N=14): 34.6 kg | Skeletal Muscle Strength, Observed Values, Median ([3]; Week 2 (Infusion 2), N=14): 34.0 kg | Skeletal Muscle Strength, Change from Baseline, Mean ([3]; Week 4 (Infusion 4), N=11): -4.1 kg | Skeletal Muscle Strength, Change from Baseline, Median ([3]; Week 4 (Infusion 4), N=11): -2.0 kg | Skeletal Muscle Strength, Observed Values, Mean ([3]; Week 4 (Infusion 4), N=11): 31.5 kg | Skeletal Muscle Strength, Observed Values, Median ([3]; Week 4 (Infusion 4), N=11): 32.0 kg | Skeletal Muscle Strength, Change from Baseline, Mean ([3]; Week 8 (Infusion 8), N=7): -2.4 kg | Skeletal Muscle Strength, Change from Baseline, Median ([3]; Week 8 (Infusion 8), N=7): -2.0 kg | Skeletal Muscle Strength, Observed Values, Mean ([3]; Week 8 (Infusion 8), N=7): 30.0 kg | Skeletal Muscle Strength, Observed Values, Median ([3]; Week 8 (Infusion 8), N=7): 26.0 kg | Skeletal Muscle Strength, Change from Baseline, Mean ([3]; Week 10 (Follow-up), N=6): 1.8 kg | Skeletal Muscle Strength, Change from Baseline, Median ([3]; Week 10 (Follow-up), N=6): -3.0 kg | Skeletal Muscle Strength, Observed Values, Mean ([3]; Week 10 (Follow-up), N=6): 33.7 kg | Skeletal Muscle Strength, Observed Values, Median ([3]; Week 10 (Follow-up), N=6): 30.0 kg | Skeletal Muscle Strength, Change from Baseline, Mean ([3]; Week 13 (follow-up), N=4): 6.3 kg | Skeletal Muscle Strength, Change from Baseline, Median ([3]; Week 13 (follow-up), N=4): -1.0 kg | Skeletal Muscle Strength, Observed Values, Mean ([3]; Week 13 (follow-up), N=4): 32.5 kg | Skeletal Muscle Strength, Observed Values, Median ([3]; Week 13 (follow-up), N=4): 26.0 kg | Skeletal Muscle Strength, Change from Baseline, Mean [3, 16]: 0.0 kg | Skeletal Muscle Strength, Change from Baseline, Median [3, 16]: 0.0 kg | Skeletal Muscle Strength, Observed Values, Mean [3, 16]: 35.1 kg | Skeletal Muscle Strength, Observed Values, Median [3, 16]: 35.0 kg | skeletal muscle strength ([3]; beginning at week 8 and up to week 13): stabilize and improve | Skeletal Muscle Strength (voluntary) ([3]; patients 502-505, screening (week <1) to week 8 (last infusion cycle)): Small increase
